Experimental data from ChEMBL document CHEMBL4706683 (J Med Chem, 2021).

Columns and labels:
Plasmodium falciparum [1] = test: Antiplasmodial activity against synchronized ring stage Plasmodium falciparum 3D7 infected in human erythrocytes assessed as reduction in parasite growth incubated for 72 hrs by Giemsa staining based light microscopic method; format: functional, organism-based; settings: 3D7, Erythrocyte
Plasmodium falciparum [2] = test: Antiplasmodial activity against synchronized ring stage Plasmodium falciparum Dd2 infected in human erythrocytes assessed as reduction in parasite growth incubated for 72 hrs by Giemsa staining based light microscopic method; format: functional, organism-based; settings: Dd2, Erythrocyte
Plasmodium falciparum [3] = test: Antiplasmodial activity against Plasmodium falciparum GB4 infected in human erythrocytes assessed as reduction in parasite growth incubated for 72 hrs by Giemsa staining based light microscopic method; format: functional, organism-based; settings: GB4, Erythrocyte
Plasmodium falciparum [4] = test: Antiplasmodial activity against Plasmodium falciparum C2A infected in human erythrocytes assessed as reduction in parasite growth incubated for 72 hrs by Giemsa staining based light microscopic method; format: functional, organism-based; settings: Erythrocyte
Plasmodium falciparum [5] = test: Antiplasmodial activity against Plasmodium falciparum CP286 infected in human erythrocytes assessed as reduction in parasite growth incubated for 72 hrs by Giemsa staining based light microscopic method; format: functional, organism-based; settings: CP286, Erythrocyte
Plasmodium falciparum [6] = test: Antiplasmodial activity against artemisinin-resistant Plasmodium falciparum 6218 infected in human erythrocytes assessed as reduction in parasite growth incubated for 72 hrs by Giemsa staining based light microscopic method; format: functional, organism-based; settings: Plasmodium falciparum, 6218, Erythrocyte
Plasmodium falciparum [7] = test: Antiplasmodial activity against artemisinin-resistant ring stage Plasmodium falciparum 6320 infected in human erythrocytes assessed as reduction in parasite growth incubated for 72 hrs by Giemsa staining based light microscopic method; format: functional, organism-based; settings: Plasmodium falciparum, 6320, Erythrocyte
HepG2 = test: Cytotoxicity against human HepG2 cells assessed as reduction in cell viability incubated for 72 hrs by cell titer glo assay; format: cell-based; settings: HepG2, 72 h
HEK-293T = test: Cytotoxicity against human HEK293T cells assessed as reduction in cell viability incubated for 72 hrs by cell titer glo assay; format: cell-based
[8] = Selectivity index, ratio of IC50 for cytotoxicity against human HepG2 cells assessed to IC50 for antiplasmodial activity against synchronized ring stage Plasmodium falciparum 3D7 infected in human erythrocytes; format: toxicity, cell-based; settings: read-out: Ratio IC50
[9] = Selectivity index, ratio of IC50 for cytotoxicity against human HEK293T cells assessed to IC50 for antiplasmodial activity against synchronized ring stage Plasmodium falciparum 3D7 infected in human erythrocytes; format: toxicity, cell-based; settings: read-out: Ratio IC50
[10] = Half life in mouse liver microsomes incubated upto 45 mins in presence of NADPH by LC-MS/MS analysis; format: ADME, Microsome
[11] = Clearance in mouse liver microsomes incubated upto 45 mins in presence of NADPH by LC-MS/MS analysis; format: ADME, Microsome; settings: read-out: CLH
[12] = Toxicity in Balb/c mouse infected with blood stage Plasmodium yoelii assessed as animal death at 60 mg/kg, ip QD for 5 consecutive days and measured on day 30; format: organism-based; settings: in vivo, 120 h, time 5 day

| Structure (SMILES) | IC50 (Plasmodium falciparum [1]) | IC50 (Plasmodium falciparum [2]) | IC50 (Plasmodium falciparum [3]) | IC50 (Plasmodium falciparum [4]) | IC50 (Plasmodium falciparum [5]) | IC50 (Plasmodium falciparum [6]) | IC50 (Plasmodium falciparum [7]) | IC50 (HepG2) | IC50 (HEK-293T) | selectivity ratio [8] | selectivity ratio [9] | half-life [10] | CLint scaled [11] | Activity [12] |
| --- | --- | --- | --- | --- | --- | --- | --- | --- | --- | --- | --- | --- | --- | --- |
| C[C@H]1[C@@H](O)O[C@@H]2O[C@@]3(C)CC[C@H]4[C@H](C)CC[C@@H]1[C@@]24OO3 [ARTENIMOL] | 2.7 nM | 2.68 nM | 3.2 nM | 3.7 nM | 5.6 nM | 5.2 nM | 5.9 nM |  |  |  |  |  |  |  |
| O=C(NO)c1cnc(N2CCC3(CCN(Cc4cncc5ccccc45)C3)CC2)nc1 | 11.5 nM | 7.9 nM |  |  |  |  |  | 102 nM | 423 nM | 9 | 37 |  |  |  |
| O=C(NO)c1cnc(N2CCC3(CCN(Cc4ccc5ccccc5n4)C3)CC2)nc1 | 6.9 nM | 2.98 nM |  |  |  |  |  | 320 nM | 393 nM | 47 | 57 |  |  |  |
| Cn1nc(CN2CCC3(CCN(c4ncc(C(=O)NO)cn4)CC3)C2)c2ccccc21 | 4.8 nM | 4.9 nM |  |  |  |  |  | 139 nM | 395 nM | 29 | 82 |  |  |  |
| O=C(NO)c1cnc(N2CCC3(CCN(Cc4ccsc4)C3)CC2)nc1 | 23.1 nM | 11.8 nM |  |  |  |  |  | 1060 nM | 831 nM | 46 | 36 |  |  |  |
| O=C(NO)c1cnc(N2CCC3(CCN(Cc4ccccc4)C3)CC2)nc1 | 6.8 nM | 7.6 nM |  |  |  |  |  | 217 nM | 375 nM | 32 | 55 |  |  |  |
| O=C(NO)c1cnc(N2CCC3(CCN(Cc4ccncc4)C3)CC2)nc1 | 16.9 nM | 22.8 nM |  |  |  |  |  | 3250 nM | 3470 nM | 193 | 206 |  |  |  |
| O=C(NO)c1cnc(N2CCC3(CCN(Cc4cnc5ccccn45)C3)CC2)nc1 | 14.4 nM | 18.5 nM |  |  |  |  |  | 1960 nM | 3530 nM | 136 | 245 |  |  |  |
| O=C(NO)c1cnc(N2CCC3(CCN(Cc4cccc5ncccc45)C3)CC2)nc1 | 11.6 nM | 9.2 nM |  |  |  |  |  | 740 nM | 559 nM | 64 | 48 |  |  |  |
| O=C(NO)c1cnc(N2CCC3(CCN(Cc4ccnc5ccccc45)C3)CC2)nc1 | 14.6 nM | 14.7 nM |  |  |  |  |  | 482 nM | 351 nM | 33 | 24 |  |  |  |
| O=C(NO)c1cnc(N2CCC3(CCN(Cc4coc5ccccc45)C3)CC2)nc1 | 13.6 nM | 10.9 nM |  |  |  |  |  | 886 nM | 576 nM | 65 | 42 |  |  |  |
| O=C(NO)c1cnc(N2CCC3(CCN(Cc4c5ccccc5cc5ccccc45)C3)CC2)nc1 | 22.3 nM | 16.5 nM |  |  |  |  |  | 165 nM | 390 nM | 7 | 18 |  |  |  |
| O=C(NO)c1cnc(N2CCC3(CCN(Cc4ccccn4)C3)CC2)nc1 | 16.2 nM | 23.3 nM |  |  |  |  |  | 1300 nM | 1720 nM | 80 | 106 |  |  |  |
| O=C(NO)c1cnc(N2CCC3(CCN(Cc4ccc5ccc6cccc7ccc4c5c67)C3)CC2)nc1 | 26.4 nM | 19.5 nM |  |  |  |  |  | 1680 nM | 1970 nM | 64 | 74 |  |  |  |
| O=C(NO)c1cnc(N2CCC3(CCN(Cc4cc5ccccc5c5ccccc45)C3)CC2)nc1 | 10.1 nM | 8.5 nM |  |  |  |  |  | 204 nM | 482 nM | 20 | 48 |  |  |  |
| O=C(NO)c1cnc(N2CCC3(CCN(Cc4ccc(-c5ccccc5)cc4)C3)CC2)nc1 | 34.5 nM | 46.1 nM |  |  |  |  |  | 641 nM | 732 nM | 19 | 21 |  |  |  |
| O=C(NO)c1cnc(N2CCC3(CCN(Cc4cccc5ccncc45)C3)CC2)nc1 | 8.1 nM | 6.9 nM |  |  |  |  |  | 415 nM | 207 nM | 51 | 26 |  |  |  |
| Cl.Cn1cc(CN2CCC3(CCN(c4ncc(C(=O)NO)cn4)CC3)C2)c2cnccc21 | 4 nM | 4.9 nM | 9.5 nM | 11.7 nM | 11.1 nM | 8.7 nM | 8.4 nM | 982 nM | 1460 nM | 248 | 370 | 2.09 h | 43.5 mL/min/kg | Toxic |
| O=C(NO)c1cnc(N2CCC3(CCN(CC4CCCC4)C3)CC2)nc1 | 13.6 nM | 12.7 nM |  |  |  |  |  | 630 nM | 1220 nM | 46 | 90 |  |  |  |
| O=C(NO)c1cnc(N2CCC3(CCN(Cc4csc5ccccc45)C3)CC2)nc1 | 4.3 nM | 3.6 nM |  |  |  |  |  | 79 nM | 109 nM | 18 | 25 |  |  |  |
| O=C(NO)c1cnc(N2CCC3(CCN(Cc4cccc5cccnc45)C3)CC2)nc1 | 8 nM | 3.4 nM |  |  |  |  |  | 221 nM | 351 nM | 28 | 44 |  |  |  |
| Cl.Cn1cc(CN2CCC3(CCN(c4ncc(C(=O)NO)cn4)CC3)C2)c2ccccc21 | 2.8 nM | 2.5 nM | 3.7 nM | 4.87 nM | 3.9 nM | 3.5 nM | 4.1 nM | 72 nM | 60 nM | 26 | 22 | 0.214 h | 424 mL/min/kg | Toxic |
| O=C(NO)c1cnc(N2CCC3(CCN(Cc4cnc5ccccc5c4)C3)CC2)nc1 | 5.54 nM | 2.7 nM |  |  |  |  |  | 564 nM | 145 nM | 102 | 26 |  |  |  |
| O=C(NO)c1cnc(N2CCC3(CCN(CC4CCCCC4)C3)CC2)nc1 | 10.2 nM | 14.7 nM |  |  |  |  |  | 1630 nM | 1250 nM | 160 | 122 |  |  |  |
| O=C(NO)c1cnc(N2CCC3(CCN(Cc4cccnc4)C3)CC2)nc1 | 20.4 nM | 17.9 nM |  |  |  |  |  | 1830 nM | 2130 nM | 90 | 104 |  |  |  |
| O=C(NO)c1cnc(N2CCC3(CCN(Cc4ccoc4)C3)CC2)nc1 | 35.3 nM | 26.3 nM |  |  |  |  |  | 1050 nM | 1630 nM | 30 | 46 |  |  |  |
| O=C(NO)c1cnc(N2CCC3(CCN(Cc4cccc5ccccc45)C3)CC2)nc1 | 4.4 nM | 6.7 nM |  |  |  |  |  | 91 nM | 154 nM | 21 | 35 |  |  |  |
| O=C(NO)c1cnc(N2CCC3(CCN(Cc4ccc5ccccc5c4)C3)CC2)nc1 | 4.1 nM | 3.16 nM |  |  |  |  |  | 228 nM | 484 nM | 56 | 118 |  |  |  |
